Measured values reported in patent US7956069B2, “Compounds” (AstraZeneca AB, priority 2006, dated 2011).

What was measured:
[1] = biological target: T1, cloned human M4 receptor (Homo sapiens, UniProt P08173); assay: hM4 receptor GTPγS binding; assay type: biochemical; settings: CHO membranes, [35S]GTPγS binding
T1 construct: purchased Perkin-Elmer RBHM4M; host or cells: Chinese hamster ovary cells (CHO)
T1 sequence (P08173 1-479): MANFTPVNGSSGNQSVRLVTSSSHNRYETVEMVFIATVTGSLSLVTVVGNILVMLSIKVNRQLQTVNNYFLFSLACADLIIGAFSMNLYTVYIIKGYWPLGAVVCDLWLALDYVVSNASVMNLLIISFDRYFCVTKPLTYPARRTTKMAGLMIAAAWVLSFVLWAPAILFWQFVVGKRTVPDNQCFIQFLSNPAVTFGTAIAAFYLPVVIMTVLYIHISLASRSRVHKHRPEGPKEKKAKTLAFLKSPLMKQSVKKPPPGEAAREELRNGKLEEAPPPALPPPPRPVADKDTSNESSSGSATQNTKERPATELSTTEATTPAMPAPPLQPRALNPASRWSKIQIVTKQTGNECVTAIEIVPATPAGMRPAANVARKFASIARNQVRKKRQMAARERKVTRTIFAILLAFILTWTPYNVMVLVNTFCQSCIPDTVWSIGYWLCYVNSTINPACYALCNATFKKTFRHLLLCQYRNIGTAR
Procedure: HM4 Receptor GTPγS Binding
Membranes produced from Chinese hamster ovary cells (CHO) expressing the cloned human M4 receptor (human Muscarinic receptor subtype 4, gene bank access NM_000741), were obtained from Perkin-Elmer (RBHM4M). The membranes were thawed at 37° C., passed 3 times through a 23-gauge blunt-end needle, diluted in the GTPγS binding buffer (50 mM Hepes, 20 mM NaOH, 100 mM NaCl, 1 mM EDTA, 5 mM MgCl2, pH 7.4, 100 μM DTT). The EC50, IC50 and Emax of the compounds of the invention were evaluated from 10-point dose-response curves (three fold concentration range) done in 60 μl in 384-well non-specific binding surface plate (Corning). Ten microliters from the dose-response curves plate (5× concentration) were transferred to another 384 well plate containing the following: 10 μg of hM4 membranes, 500 μg of Flashblue beads (Perkin-Elmer) and GDP in a 25 μl volume. An additional 15 μl containing 3.3× (55000 dpm) of GTPγ^35S (0.4 nM final) were added to the wells resulting in a total well volume of 50 μl. Basal and maximal stimulated [^35S]GTPγS binding were determined in absence and presence of 30 μM of acetylcholine agonist. The membranes/beads mix were pre-incubated for 15 minutes at room temperature with 40 μM GDP prior to distribution in plates (20 μM final). The reversal of acetylcholine-induced stimulation (10 μM final) of [^35S]GTPγS binding was used to assay the antagonist properties (IC50) of the compounds. The plates were incubated for 60 minutes at room temperature with shaking, then centrifuged at 2000 rpm for 5 minutes. The radioactivity (cpm) were counted in a Trilux (Perkin-Elmer).
(§1) Values of EC50, IC50 and Emax were obtained using sigmoidal fits of a non-linear curve-fitting program (XLfit version 5.0.6 from ID Business Solutions Limited, Guildford, UK) of percent stimulated [^35S]GTPγS binding vs. log(molar ligand).
All EC50 and IC50 values are reported as arithmetic means±standard error of mean of ‘n’ independent experiments. […] The IC50 was the concentration of the compound of the invention at which 50% inhibition of acetylcholine [^35S]GTPγS binding stimulation has been observed.

[2] = biological target: T2, cloned human M2 receptor (Homo sapiens, UniProt P08172); assay: hM2 receptor GTPγS binding; assay type: biochemical; settings: CHO membranes, [35S]GTPγS binding
T2 construct: purchased Perkin-Elmer RBHM2M; host or cells: Chinese hamster ovary cells (CHO)
T2 sequence (P08172 1-466): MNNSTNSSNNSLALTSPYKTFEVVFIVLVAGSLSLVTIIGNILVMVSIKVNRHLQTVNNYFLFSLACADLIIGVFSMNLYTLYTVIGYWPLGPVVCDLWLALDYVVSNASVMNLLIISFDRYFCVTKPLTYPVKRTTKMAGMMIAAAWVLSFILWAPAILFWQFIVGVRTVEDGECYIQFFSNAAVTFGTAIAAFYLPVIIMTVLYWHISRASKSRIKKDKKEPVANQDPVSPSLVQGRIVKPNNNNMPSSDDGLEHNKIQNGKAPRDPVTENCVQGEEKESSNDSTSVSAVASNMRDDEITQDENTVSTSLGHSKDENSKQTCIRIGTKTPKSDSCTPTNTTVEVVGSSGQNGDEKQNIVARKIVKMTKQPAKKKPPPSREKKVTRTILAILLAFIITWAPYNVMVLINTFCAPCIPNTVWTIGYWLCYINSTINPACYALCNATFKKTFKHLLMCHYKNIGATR
Procedure: hM2 Receptor GTPγS Binding
Membranes produced from Chinese hamster ovary cells (CHO) expressing the cloned human M2 receptor (human Muscarinic receptor subtype 2, gene bank access NM_000739), were obtained from Perkin-Elmer (RBHM2M). The membranes were thawed at 37° C., passed 3 times through a 23-gauge blunt-end needle, diluted in the GTPγS binding buffer (50 mM Hepes, 20 mM NaOH, 100 mM NaCl, 1 mM EDTA, 5 mM MgCl2, pH 7.4, 100 μM DTT). The EC50, IC50 and Emax of the compounds of the invention were evaluated from 10-point dose-response curves (three fold concentration range) done in 60 μl in 384-well non-specific binding surface plate (Corning). Ten microliters from the dose-response curves plate (5× concentration) were transferred to another 384 well plate containing the following: 10 μg of hM2 membranes, 500 μg of Flashblue beads (Perkin-Elmer) and GDP in a 25 μl volume. An additional 15 μl containing 3.3× (55000 dpm) of GTPγ^35S (0.4 nM final) were added to the wells resulting in a total well volume of 50 μl. Basal and maximal stimulated [^35S]GTPγS binding were determined in absence and presence of 30 μM of acetylcholine agonist. The membranes/beads mix were pre-incubated for 15 minutes at room temperature with 25 μM GDP prior to distribution in plates (12.5 μM final). The reversal of acetylcholine-induced stimulation (2 μM final) of [^35S]GTPγS binding was used to assay the antagonist properties (IC50) of the compounds. The plates were incubated for 60 minutes at room temperature with shaking, then centrifuged at 2000 rpm for 5 minutes. The radioactivity (cpm) were counted in a Trilux (Perkin-Elmer).
as §1
All EC50 and IC50 values are reported as arithmetic means ± standard error of mean of ‘n’ independent experiments. […] The IC50 was the concentration of the compound of the invention at which 50% inhibition of acetylcholine [^35S]GTPγS binding stimulation has been observed.

SMILES	EC50 [1]	EC50 [2]
CC(C)OC(=O)N1CCC(N2CCC(N3C(=O)C[C@H]4CCCC[C@@H]43)CC2)CC1	4.2 µM	1200 nM
COc1ccccc1C(=O)N1CCC(N2CCC(N3C(=O)N[C@@H]4CCCC[C@H]43)CC2)CC1	> 30 µM	> 30000 nM
O=C(C1CCCC1)N1CCC(N2CCC(N3C(=O)N[C@H]4CCCC[C@@H]43)CC2)CC1	> 30 µM	2600 nM
O=C(OCCF)N1CCC(N2CCC(N3C(=O)N[C@H]4CCCC[C@@H]43)CC2)CC1	1.1 µM	380 nM
CC(C)OC(=O)N1CCC(N2CCC(N3C(=O)N[C@H]4CCCC[C@@H]43)CC2)CC1	1.3 µM	760 nM
CC(C)OC(=O)N1CCC(N2CCC(N3C(=O)N[C@@H]4CCCC[C@@H]43)CC2)CC1	4.5 µM	2500 nM
CN1C(=O)N(C2CCN(C3CCN(C(=O)C4CC4)CC3)CC2)[C@H]2CCCC[C@@H]21	> 30 µM	> 30000 nM
O=C1CCCN1CCC(=O)N1CCC(N2CCC(N3C(=O)N[C@@H]4CCCC[C@H]43)CC2)CC1	> 30 µM	1000 nM
CCOC(=O)N1CC[C@H](N2CCC(N3C(=O)N[C@H]4CCCC[C@@H]43)CC2)C1	9.4 µM	7300 nM
O=C(C1CC1)N1CCC(N2CCC(N3C(=O)N[C@@H]4CCCC[C@H]43)CC2)CC1	> 30 µM	> 30000 nM
CCOC(=O)N1CCC(N2CCC(N3C(=O)N[C@H]4CCCC[C@@H]43)CC2)CC1	0.33 µM	120 nM
O=C1CCCN1CCC(=O)N1CCC(N2CCC(N3C(=O)N[C@H]4CCCC[C@@H]43)CC2)CC1	5.1 µM	500 nM
